Source: patent US20240109897A1, “MODULATORS OF FPR1 AND METHODS OF USING THE SAME” (BEIJING TIANTAN HOSPITAL, priority 2021, published 2024)

Legend:
[1] = tested on: ICH mice; assay: MRI lesion, hematoma and perihematomal edema volume in intracerebral hemorrhage (ICH) mouse model; format: in vivo; settings: 5 mg/kg/daily i.p., first dose 1 h after ICH onset, vs vehicle
Description: (§1) The intracerebral hemorrhage (ICH) model in mice was used to illustrate the protective benefits of the compounds of this disclosure, and FIG. 1 depicts the procedure in preparing this model. ICH was induced in C57 B/L6 male mice by the injection of an autologous blood or collagenase as previously described (Lauer et al., Circulation 124: 1654-1662 (2011); Rynkowski et al., Nat. Protoc. 3:122-128 (2008)). Mice were anesthetized using isoflurane inhalation and fixed on a stereotactic frame. A burr hole was drilled on the right side of the skull at 2.3 mm lateral to the midline and 0.5 mm anterior to the bregma. For the autologous blood model, 30 μl of non-heparinized blood was withdrawn from the angular vein. The first 5 μl blood was injected at a depth of 3 mm beneath the hole, and the rest 25 μl blood were injected at 3.7 mm beneath the hole with a rate of 1 μl/min. In the collagenase model, 0.038 U of the bacterial collagenase (in 0.5 μl saline) was infused to the striatum (0.5 mm anterior, 2.3 mm right lateral, and 3.5 mm deep relative to bregma) at a speed of 0.5 μl/min. Mice on the sham control were injected with an equal volume of saline. Throughout the procedure, the body temperature was maintained at 37° C. with a homeothermic blanket. After the surgery, mice were under observation with free access to food and water. […]
The total lesion volume was measured on the 7T small-animal MM scanner (Bruker, Corp., USA) as described (Li et al., 2017). The T2-weighted water imaging was recorded with following parameters (repetition time (TR)=4500 ms, echo time (TE)=65.5 ms, field of view (FOV)=28×28 mm^2, image matrix=256×256, at 0.5-mm slice thickness). […] The volumes were manually outlined and calculated by multiplying the sum of the volume by the distance between sections (0.5 mm) using MIPAV software. PHE volumes were calculated as total lesion volume minus hematoma volume. MRI data were analyzed by two investigators blinded to experimental groups.

[2] = tested on: ICH mice; assay: Neurological function assessment (mNSS, corner-turning test, rotarod test) in ICH mouse model; format: in vivo; settings: vs vehicle
Description: as §1, with “blanket.” for “blanket. After the surgery, mice were under observation with free access to food and water.”
The neurological function assessment was performed by investigators who were blinded to the two treatment groups. The modified Neurological Severity Score (mNSS), corner-turning test, and rotarod test were conducted to evaluate the neuro-deficits of the ICH mice at defined time points as described (Li et al., Proc. Nat. Acad. Sci. USA 114:E396-E405 (2017)). mice were evaluated for motor function (muscle and abnormal movement), sensory (visual, tactile, and proprioceptive), and reflexes (pinna, corneal, startle reflexes). […] The corner-turning test was used to evaluate the sensorimotor damage to quantify the turning preference (right or left) upon approaching a 30° corner. […] The percentage of ipsilateral turns was then calculated. […] The duration of each mouse on the rod was recorded. […]

[3] = day 1 and day 3 after ICH, 5 mg/kg i.p.

## Cc1ccc(O)c(-c2[nH]nc3c2C(c2ccc(C(F)(F)F)cc2)N(C2CCOCC2)C3=O)c1 (racemic) [Compound 1, Rac-3-(2-hydroxy-5-methylphenyl)-5-(tetrahydro-2H-pyran-4-yl)-4-(4-(trifluoromethyl)phenyl)-4,5-dihydropyrrolo[3,4-c]pyrazol-6(2H)-one]
[1]
  perihematomal edema (PHE) size: significantly reduced
[2]; 5 mg/kg/daily i.p., first dose 1 h after ICH onset
  neurological outcomes: improved
[2]; [3]
  locomotor function scores (corner turn test, rotarod test): improved
  modified neurological symptom score (mNSS): improved
